Values quoted from earlier work in patent US20130085131A1, “HETEROCYCLIC COMPOUNDS AND THEIR USES” (Amgen Inc., priority 2010, published 2013).

Tests used:
[1] = system: murine model of allergic disease; details: absence of functional delta (IC 87114 and p110δ D910A mice)
murine model of asthma = details: ovalbumin-induced airway inflammation
p110δ = molecular target: T1, p110δ (Homo sapiens, UniProt O00329)
T1 sequence (O00329 1-1044): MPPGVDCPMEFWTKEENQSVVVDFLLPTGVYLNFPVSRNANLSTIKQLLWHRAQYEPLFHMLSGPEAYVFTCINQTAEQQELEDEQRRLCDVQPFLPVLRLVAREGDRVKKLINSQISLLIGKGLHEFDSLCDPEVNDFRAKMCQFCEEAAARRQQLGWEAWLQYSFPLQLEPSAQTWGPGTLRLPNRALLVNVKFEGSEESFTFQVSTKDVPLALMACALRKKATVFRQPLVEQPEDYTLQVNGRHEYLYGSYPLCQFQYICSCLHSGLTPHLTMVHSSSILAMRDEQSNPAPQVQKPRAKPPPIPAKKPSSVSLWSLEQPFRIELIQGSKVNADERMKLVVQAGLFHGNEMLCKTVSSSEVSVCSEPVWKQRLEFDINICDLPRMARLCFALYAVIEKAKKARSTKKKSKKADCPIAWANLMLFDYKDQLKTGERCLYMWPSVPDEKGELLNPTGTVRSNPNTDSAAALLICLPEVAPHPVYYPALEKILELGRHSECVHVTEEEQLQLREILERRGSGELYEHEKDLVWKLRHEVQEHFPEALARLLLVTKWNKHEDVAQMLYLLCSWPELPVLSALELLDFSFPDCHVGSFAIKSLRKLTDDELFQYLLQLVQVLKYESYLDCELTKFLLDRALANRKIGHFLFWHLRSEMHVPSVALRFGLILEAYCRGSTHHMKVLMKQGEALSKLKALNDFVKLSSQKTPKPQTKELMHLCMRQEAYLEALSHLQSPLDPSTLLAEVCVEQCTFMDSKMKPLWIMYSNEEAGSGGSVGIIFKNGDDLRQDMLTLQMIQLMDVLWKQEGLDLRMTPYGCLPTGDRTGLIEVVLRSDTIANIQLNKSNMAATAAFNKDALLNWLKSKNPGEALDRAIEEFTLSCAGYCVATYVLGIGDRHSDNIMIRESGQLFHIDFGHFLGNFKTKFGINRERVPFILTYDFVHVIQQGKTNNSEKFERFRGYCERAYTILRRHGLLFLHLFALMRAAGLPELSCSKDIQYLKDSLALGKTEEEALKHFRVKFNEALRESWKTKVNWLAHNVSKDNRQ

[2] = system: model of systemic lupus erythematosis; details: in vivo
[3] = system: mouse model of rheumatoid arthritis

Compound: Cc1ccccc1-n1c(Cn2cnc3c(N)ncnc32)nc2cccc(C)c2c1=O [IC87114]
- passive cutaneous anaphylaxis (PCA) [1]: significantly reduced
- inflammation and disease in a murine model of asthma (murine model of asthma): significantly ameliorate
- activity against any protein kinases tested (protein kinases): no activity
- inhibition of p110δ (p110δ): high nanomolar range (triple digit)

Compound: O=C1NC(=O)/C(=C\c2ccc3nccnc3c2)S1 [AS 605240]
- onset of disease in a model of systemic lupus erythematosis [2]: delay onset of disease
- efficacy in a mouse model of rheumatoid arthritis [3]: efficacious
